Values of other authors as cited in US20120184504A1, “"The Use of a PAR-1 Antagonist in Combination with a P2Y12 ADP Receptor Antagonist for Inhibition of Thrombosis"” (priority 2009, published 2012).
Read-outs that look alike come from different tables or passages of the source.

Key:
[1] = system: ischemic events and bleeding in patients; conditions: two phase 2 trials; cited from earlier work
[2] = system: CFRs (coronary thrombus formation); conditions: pigs, cited from earlier work
[3] = system: clinical events and bleeding in patients with acute coronary syndromes; conditions: cited from earlier work

CCOC(=O)N[C@@H]1CC[C@@H]2[C@@H](C1)C[C@H]1C(=O)O[C@H](C)[C@H]1[C@H]2/C=C/c1ccc(-c2cccc(F)c2)cn1 [SCH 530348]
bleeding [1]: without an accompanying increase in bleeding | incidence of ischemic events [1]: strong trends towards reduced incidence of ischemic events

CC(=O)Oc1ccccc1C(=O)O [aspirin]
effect on CFRs ([2]; aspirin alone 7 mg/kg): reduced, but did not completely abolish

COC(=O)[C@H](c1ccccc1Cl)N1CCc2sccc2C1 [clopidogrel]
effect on CFRs ([2]; clopidogrel alone 5 mg/kg): reduced, but did not completely abolish

CC(=O)Oc1cc2c(s1)CCN(C(C(=O)C1CC1)c1ccccc1F)C2 (stereo not drawn) [prasugrel]
remaining prevalence of clinical events [3]: 10% | incremental reduction in clinical events ([3]; prasugrel versus clopidogrel): 19%
